The record followed here is patent US20240270741A1 (Cogent Biosciences, Inc., priority 2023, published 2024).

The structures appear in SMILES notation.

For the assay, the target named is FGFR2 (Homo sapiens, UniProt P21802). The assay can be described thus: FGFR wild type enzyme assay (HTRF KinEASE-TK), FGFR2. The settings on record: Enz FGFR2 (nM), FGFR2 wild type enzyme assay. For orientation: In TR-FRET formats the signal depends on donor and acceptor labels being close together.
Sequence of FGFR2 (P21802 399-821 limits assumed): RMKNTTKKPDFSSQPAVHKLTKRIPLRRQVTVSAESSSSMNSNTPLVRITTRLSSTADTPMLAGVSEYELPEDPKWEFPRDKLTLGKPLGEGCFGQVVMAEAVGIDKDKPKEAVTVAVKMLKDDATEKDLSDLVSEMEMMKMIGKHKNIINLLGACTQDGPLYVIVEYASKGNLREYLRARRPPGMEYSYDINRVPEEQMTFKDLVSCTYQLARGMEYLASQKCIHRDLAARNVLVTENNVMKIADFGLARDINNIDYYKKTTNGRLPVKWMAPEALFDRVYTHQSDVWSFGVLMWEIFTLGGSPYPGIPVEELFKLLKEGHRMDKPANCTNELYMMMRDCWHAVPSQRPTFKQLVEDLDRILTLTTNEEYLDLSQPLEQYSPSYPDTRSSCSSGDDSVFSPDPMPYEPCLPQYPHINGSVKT
With `N#Cc1cnn2cc(-c3cnn(C(CO)CO)c3)cc(Sc3ncccc3F)c12` [Example 524, 6-(1-(1,3-dihydroxypropan-2-yl)-1H-pyrazol-4-yl)-4-((3-fluoropyridin-2-yl)thio)pyrazolo[1,5-a]pyridine-3-carbonitrile], the half-inhibitory concentration (IC50) (as a rule, the concentration at which inhibition is half-maximal) is 3 nM.

Regarding `N#Cc1ccccc1Sc1cc(-c2cnn(C(CO)CO)c2)cn2ncc(C#N)c12` [Example 525, 4-((2-cyanophenyl)thio)-6-(1-(1,3-dihydroxypropan-2-yl)-1H-pyrazol-4-yl)pyrazolo[1,5-a]pyridine-3-carbonitrile], the IC50 worked out at 1 nM.

The compound `N#Cc1ccccc1Sc1cc(-c2ccc(N3CCNCC3)nc2)cn2ncc(C#N)c12` [Example 526, 4-((2-cyanophenyl)thio)-6-(6-(piperazin-1-yl)pyridin-3-yl)pyrazolo[1,5-a]pyridine-3-carbonitrile] showed an IC50 of 1 nM.

`CN1CCN(c2ccc(-c3cc(Sc4ccccc4C#N)c4c(C#N)cnn4c3)cn2)CC1` [Example 527, 4-((2-cyanophenyl)thio)-6-(6-(4-methylpiperazin-1-yl)pyridin-3-yl)pyrazolo[1,5-a]pyridine-3-carbonitrile] yielded an IC50 of 0.4 nM.

Take `Cc1c(-c2cc(Sc3ccc(F)cc3C#N)c3c(C#N)cnn3c2)cnn1[C@@H]1CCC(C)(C)NC1` [Example 528, 4-(2-cyano-4-fluoro-phenyl)sulfanyl-6-[1-[(3R)-6,6-dimethyl-3-piperidyl]-5-methyl-pyrazol-4-yl]pyrazolo[1,5-a]pyridine-3-carbonitrile]: it took 2.5 nM to reach half-maximal inhibition (IC50).

Consider `N#Cc1cnn2cc(-c3cn([C@H]4CCCNC4)nc3CO)cc(Sc3ncccc3F)c12` [Example 530, 4-[(3-fluoro-2-pyridyl)sulfanyl]-6-[3-(hydroxymethyl)-1-[(3S)-3-piperidyl]pyrazol-4-yl]pyrazolo[1,5-a]pyridine-3-carbonitrile], for which half-maximal inhibition (IC50) was put at 69 nM.

Turning to `Cc1c(-c2cc(Sc3ccc(F)cc3C#N)c3c(C#N)cnn3c2)cnn1C[C@H](O)CO` [Example 531, (S)-4-((2-cyano-4-fluorophenyl)thio)-6-(1-(2,3-dihydroxypropyl)-5-methyl-1H-pyrazol-4-yl)pyrazolo[1,5-a]pyridine-3-carbonitrile], the half-inhibitory concentration (IC50) came to 11 nM.

For `C[C@H](O)C(=O)N1CCC[C@H](n2cc(-c3cc(Sc4ccccc4C#N)c4c(C#N)cnn4c3)cn2)C1` [Example 532, 4-((2-cyanophenyl)thio)-6-(1-((S)-1-((S)-2-hydroxypropanoyl)piperidin-3-yl)-1H-pyrazol-4-yl)pyrazolo[1,5-a]pyridine-3-carbonitrile], the IC50 turned out to be 0.5 nM.

The compound `C[C@H](O)C(=O)N1CCC[C@@H](n2cc(-c3cc(Sc4ccccc4C#N)c4c(C#N)cnn4c3)cn2)C1` [Example 533, 4-((2-cyanophenyl)thio)-6-(1-((R)-1-((S)-2-hydroxypropanoyl)piperidin-3-yl)-1H-pyrazol-4-yl)pyrazolo[1,5-a]pyridine-3-carbonitrile] had an IC50 of 1 nM.

In turn, `N#Cc1ccccc1Sc1cc(-c2cnn([C@@H]3CCCN(CCO)C3)c2)cn2ncc(C#N)c12` [Example 534, (R)-4-((2-cyanophenyl)thio)-6-(1-(1-(2-hydroxyethyl)piperidin-3-yl)-1H-pyrazol-4-yl)pyrazolo[1,5-a]pyridine-3-carbonitrile] had an IC50 of 0.5 nM.

`N#Cc1ccccc1Sc1cc(-c2cnn([C@@H]3CCCNC3)c2)cn2ncc(C#N)c12` [Example 535, (R)-4-((2-cyanophenyl)thio)-6-(1-(piperidin-3-yl)-1H-pyrazol-4-yl)pyrazolo[1,5-a]pyridine-3-carbonitrile] registered an IC50 of 0.4 nM.

For `N#Cc1ccccc1Sc1cc(-c2cnn([C@@H]3CCCN(C(=O)CO)C3)c2)cn2ncc(C#N)c12` [Example 536, (R)-4-((2-cyanophenyl)thio)-6-(1-(1-(2-hydroxyacetyl)piperidin-3-yl)-1H-pyrazol-4-yl)pyrazolo[1,5-a]pyridine-3-carbonitrile], the IC50 came to 1 nM.

The compound `CC(=O)N1CCC[C@@H](n2cc(-c3cc(Sc4ccccc4C#N)c4c(C#N)cnn4c3)cn2)C1` [Example 537, (R)-6-(1-(1-acetylpiperidin-3-yl)-1H-pyrazol-4-yl)-4-((2-cyanophenyl)thio)pyrazolo [1,5-a]pyridine-3-carbonitrile] gave an IC50 of 1 nM.

Compound `COCC(=O)N1CCC(n2cc(-c3cc(Sc4ccccc4C#N)c4c(C#N)cnn4c3)cn2)CC1` [Example 538, 4-((2-cyanophenyl)thio)-6-(1-(1-(2-methoxyacetyl)piperidin-4-yl)-1H-pyrazol-4-yl)pyrazolo[1,5-a]pyridine-3-carbonitrile] showed an IC50 of 0.3 nM.

In turn, `Cc1ccc(-c2cc(Sc3ccccc3C#N)c3c(C#N)cnn3c2)cn1` [Example 539] yielded an IC50 of 9 nM.

On to `CNC(=O)Cn1cc(-c2cc(Sc3ccccc3C#N)c3c(C#N)cnn3c2)cn1` [Example 540], for which it took 1 nM to reach half-maximal inhibition (IC50).

`CN(C)C(=O)Cn1cc(-c2cc(Sc3ccccc3C#N)c3c(C#N)cnn3c2)cn1` [Example 541, 2-(4-(3-cyano-4-((2-cyanophenyl)thio)pyrazolo [1,5-a]pyridin-6-yl)-1H-pyrazol-1-yl)-N,N-dimethylacetamide] showed an IC50 of 1 nM.

The compound `N#Cc1ccccc1Sc1cc(-c2cnn(C3CCOCC3)c2)cn2ncc(C#N)c12` [Example 542, 4-((2-cyanophenyl)thio)-6-(1-(tetrahydro-2H-pyran-4-yl)-1H-pyrazol-4-yl)pyrazolo[1,5-a]pyridine-3-carbonitrile] yielded a half-maximal inhibitory concentration (IC50) of 0.4 nM.

As to `Cc1c(-c2cc(Sc3ccc(F)cc3C#N)c3c(C#N)cnn3c2)cnn1[C@H]1CC[C@H](OP(=O)(O)O)CC1` [Example 543, [4-[4-[3-cyano-4-(2-cyano-4-fluoro-phenyl)sulfanyl-pyrazolo[1,5-a]pyridin-6-yl]-5-methylpyrazol-1-yl]cyclohexyl] dihydrogen phosphate], the IC50 was 2 nM.

Compound `N#Cc1ccccc1Sc1cc(-c2cnn(C[C@H](O)CO)c2)cn2ncc(C#N)c12` [Example 544, (S)-4-((2-cyanophenyl)thio)-6-(1-(2,3-dihydroxypropyl)-1H-pyrazol-4-yl)pyrazolo[1,5-a]pyridine-3-carbonitrile] displayed a half-maximal inhibitory concentration (IC50) of 1 nM.

Consider `Cn1ncc(-c2cc(Sc3ncccc3F)c3c(C#N)cnn3c2)c1N` [Example 545, 6-(5-amino-1-methyl-pyrazol-4-yl)-4-[(3-fluoro-2-pyridyl)sulfanyl]pyrazolo[1,5-a]pyridine-3-carbonitrile], for which inhibition was half-maximal at 3 nM (IC50).

Regarding `N#Cc1cc(F)ccc1Sc1cc(-c2cnn(-c3cn[nH]c3)c2)cn2ncc(C#N)c12` [Example 546, 6-(1′H-[1,4′-bipyrazol]-4-yl)-4-((2-cyano-4-fluorophenyl)thio)pyrazolo [1,5-a]pyridine-3-carbonitrile], it took 6 nM to reach half-maximal inhibition (IC50).

The compound `Cc1c(-c2cc(Sc3ccc(F)cc3C#N)c3c(C#N)cnn3c2)cnn1C1CCOC1` (stereo not shown) [Example 547, 4-((2-cyano-4-fluorophenyl)thio)-6-(5-methyl-1-(tetrahydrofuran-3-yl)-1H-pyrazol-4-yl)pyrazolo[1,5-a]pyridine-3-carbonitrile] returned an IC50 of 3 nM.

Compound `N#Cc1ccccc1Sc1cc(-c2ccc(N3CCC(O)CC3)nc2)cn2ncc(C#N)c12` [Example 548, 4-((2-cyanophenyl)thio)-6-(6-(4-hydroxypiperidin-1-yl)pyridin-3-yl)pyrazolo[1,5-a]pyridine-3-carbonitrile] had an IC50 of 0.4 nM.

In the case of `N#Cc1ccccc1Sc1cc(-c2ccc(N3CCCC3)nc2)cn2ncc(C#N)c12` [Example 549, 4-((2-cyanophenyl)thio)-6-(6-(pyrrolidin-1-yl)pyridin-3-yl)pyrazolo[1,5-a]pyridine-3-carbonitrile], 1 nM corresponded to half-maximal inhibition (IC50).

`N#Cc1cnn2cc(-c3ccc(N4CC[C@H](O)C4)nc3)cc(Sc3ncccc3F)c12` [Example 550, (S)-4-((3-fluoropyridin-2-yl)thio)-6-(6-(3-hydroxypryrrolidin-1-yl)pyridin-3-yl)pyrazolo[1,5-a]pyridine-3-carbonitrile] displayed a half-inhibitory concentration (IC50) of 1.5 nM.

With `N#Cc1cnn2cc(-c3ccc(N4CC[C@@H](O)C4)nc3)cc(Sc3ncccc3F)c12` [Example 551, (R)-4-((3-fluoropyridin-2-yl)thio)-6-(6-(3-hydroxypyrrolidin-1-yl)pyridin-3-yl)pyrazolo[1,5-a]pyridine-3-carbonitrile], the half-inhibitory concentration (IC50) was determined as 2 nM.

Take `N#Cc1cnn2cc(-c3ccc(N4CCC(O)CC4)nc3)cc(Sc3ncccc3F)c12` [Example 552, 4-((3-fluoropyridin-2-yl)thio)-6-(6-(4-hydroxypiperidin-1-yl)pyridin-3-yl)pyrazolo[1,5-a]pyridine-3-carbonitrile]: half-maximal inhibition (IC50) was put at 1 nM.

For the compound `N#Cc1cnn2cc(-c3ccc(N4CCNCC4)nc3)cc(Sc3ncccc3F)c12` [Example 553, 4-((3-fluoropyridin-2-yl)thio)-6-(6-(piperazin-1-yl)pyridin-3-yl)pyrazolo[1,5-a]pyridine-3-carbonitrile], the IC50 amounted to 1 nM.

As for `N#Cc1cnn2cc(-c3ccc(N4CCCC4)nc3)cc(Sc3ncccc3F)c12` [Example 554, 4-((3-fluoropyridin-2-yl)thio)-6-(6-(pyrrolidin-1-yl)pyridin-3-yl)pyrazolo[1,5-a]pyridine-3-carbonitrile], inhibition was half-maximal at 2 nM (IC50).

Turning to `CC(=O)N1CCN(c2ccc(-c3cc(Sc4ncccc4F)c4c(C#N)cnn4c3)cn2)CC1` [Example 555, 6-(6-(4-acetylpiperazin-1-yl)pyridin-3-yl)-4-((3-fluoropyridin-2-yl)thio)pyrazolo[1,5-a]pyridine-3-carbontrile], the midpoint of inhibition, the IC50, lay at 1 nM.

In turn, `Cc1c(-c2cc(Sc3ccccc3C#N)c3c(C#N)cnn3c2)cnn1C1CCN(C#N)CC1` [Example 556, 4-((2-cyanophenyl)thio)-6-(1-(1-cyanopiperidin-4-yl)-5-methyl-1H-pyrazol-4-yl)pyrazolo[1,5-a]pyridine-3-carbonitrile] had an IC50 of 1 nM.

Take `Cc1c(-c2cc(Sc3ncccc3F)c3c(C#N)cnn3c2)cnn1C1CCN(C#N)CC1` [Example 557]: the half-inhibitory concentration (IC50) stood at 2 nM.

`Cn1cc(-c2cc(Sc3ccc(F)cc3C#N)c3c(C#N)cnn3c2)cn1` [Example 558, 4-((2-cyano-4-fluorophenyl)thio)-6-(1-methyl-1H-pyrazol-4-yl)pyrazolo[1,5-a]pyridine-3-carbonitrile] registered an IC50 of 2 nM.
